What was measured:
[1] = molecular target: Human CB1 Receptor-1 (hCB1) (Homo sapiens (Human), UniProt P21554); experiment: hCB1 Gai cyclic AMP (cAMP) TR-FRET assay, antagonism of EC80 CP55940 with forskolin; type: cell-based; details: hCB1 cells, 30 min pre-incubation
Protocol: (§1) Example 3. Biochemical Methods Human CB1 Receptor-1 (hCB1) and Human CB1 Receptor-1b (hCBib)
(§2) hCB1/hCB1 b Gai Cyclic AMP (cAMP) Assays: Cells were seeded in a 384-well plate at an appropriate density from frozen cells. The cAMP assays were performed according to the manufacturer's protocol using MULTISCREEN™ TR-FRET cAMP 1.0 No Wash Assay Kit. Cells (hCB1 or hCB1 b) were pre-incubated with customer compounds for 30 minutes at rt followed by addition of EC80 CP55940 concentration and Forskolin. Cells were then incubated for 20 minutes at 37C. The reaction was terminated by sequentially adding sequentially adding MULTISCREEN™ Eu-labeled cAMP and MULTISCREEN™ 650-labeled anti-cAMP antibody in lysis buffer. The plate was then incubated at rt for 30 minutes before reading fluorescent emissions at 620 nm and 665 with excitation at 314 nm on FlexStation III (Molecular Devices). The results are shown in Table 2 (“***” denotes an IC50<100 nM; “**” denotes an IC50 between 100 nM and 500 nM, and “*” denotes an IC50>500 nM).

[2] = molecular target: Human CB1 Receptor-1b (hCB1b) (Homo sapiens (Human), UniProt P21554); experiment: hCB1b Gai cyclic AMP (cAMP) TR-FRET assay, antagonism of EC80 CP55940 with forskolin; type: cell-based; details: hCB1b cells, 30 min pre-incubation, read-out: CB1b IC50
Human CB1 Receptor-1b (hCB1b), sequence (P21554 other isoform, or with tags, fused parts or gaps): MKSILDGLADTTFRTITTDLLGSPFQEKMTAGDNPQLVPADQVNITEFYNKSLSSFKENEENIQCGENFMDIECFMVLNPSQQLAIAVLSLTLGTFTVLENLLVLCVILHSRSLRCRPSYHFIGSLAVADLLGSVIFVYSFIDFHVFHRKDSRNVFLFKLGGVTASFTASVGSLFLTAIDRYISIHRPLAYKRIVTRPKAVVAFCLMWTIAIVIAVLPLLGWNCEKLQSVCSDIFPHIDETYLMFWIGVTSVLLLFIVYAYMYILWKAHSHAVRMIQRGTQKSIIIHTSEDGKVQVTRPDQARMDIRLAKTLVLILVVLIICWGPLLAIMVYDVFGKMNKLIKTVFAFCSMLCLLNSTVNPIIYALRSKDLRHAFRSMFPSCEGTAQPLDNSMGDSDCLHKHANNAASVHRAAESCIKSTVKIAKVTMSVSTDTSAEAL
Protocol: as §1, §2

Human CB1 Receptor-1 (hCB1), sequence (P21554 whole entry): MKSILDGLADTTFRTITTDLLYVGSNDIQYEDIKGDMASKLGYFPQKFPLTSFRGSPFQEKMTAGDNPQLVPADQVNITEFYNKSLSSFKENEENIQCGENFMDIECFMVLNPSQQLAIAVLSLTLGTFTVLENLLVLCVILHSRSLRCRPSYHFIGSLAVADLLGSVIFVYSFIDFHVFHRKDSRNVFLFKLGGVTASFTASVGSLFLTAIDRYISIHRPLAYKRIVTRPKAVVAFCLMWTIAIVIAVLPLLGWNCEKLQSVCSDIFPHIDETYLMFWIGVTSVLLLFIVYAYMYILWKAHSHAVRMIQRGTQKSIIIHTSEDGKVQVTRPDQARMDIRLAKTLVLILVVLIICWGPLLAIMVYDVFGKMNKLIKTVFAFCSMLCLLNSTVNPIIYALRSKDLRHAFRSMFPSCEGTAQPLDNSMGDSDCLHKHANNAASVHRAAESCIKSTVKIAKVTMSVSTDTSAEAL

NS(=O)(=O)NC1(CN/C(=N\S(=O)(=O)c2ccc(C(F)(F)F)cc2)N2C[C@H](c3ccccc3)C(c3ccc(Cl)cc3)=N2)CC1 [Compound 235, (S,E)-3-(4-chlorophenyl)-4-phenyl-N-((1-(sulfamoylamino)cyclopropyl)methyl)-N′-((4-(trifluoromethyl)phenyl)sulfonyl)-4,5-dihydro-1H-pyrazole-1-carboximidamide]
IC50 [1]: 0.1 to 0.5 µM
IC50 [2]: < 0.1 µM

NS(=O)(=O)[C@H]1CC[C@H](N/C(=N/S(=O)(=O)c2ccc(Cl)cc2)N2C[C@H](c3ccccc3)C(c3ccc(Cl)cc3)=N2)C1 (single isomer, unassigned) [Compound 139]
IC50 [1]: 0.1 to 0.5 µM
IC50 [2]: 0.1 to 0.5 µM

NS(=O)(=O)[C@H]1C[C@@H](N/C(=N/S(=O)(=O)c2ccc(Cl)cc2)N2C[C@H](c3ccccc3)C(c3ccc(Cl)cc3)=N2)C1 (single isomer, unassigned) [Compound 116]
IC50 [1]: 0.1 to 0.5 µM
IC50 [2]: 0.1 to 0.5 µM

NS(=O)(=O)CCNC(=NS(=O)(=O)c1cccc(C(F)(F)F)c1)N1C[C@H](c2ccccc2)C(c2ccc(Cl)cc2)=N1 [Compound 27, (S)-3-(4-chlorophenyl)-4-phenyl-N-(2-sulfamoylethyl)-N′-((3-(trifluoromethyl)phenyl)sulfonyl)-4,5-dihydro-1H-pyrazole-1-carboximidamide]
IC50 [1]: < 0.1 µM
IC50 [2]: < 0.1 µM

C#Cc1ccc(S(=O)(=O)N=C(NCCS(N)(=O)=O)N2C[C@H](c3ccccc3)C(c3ccc(F)cc3)=N2)cc1 [Compound 59, (S)-N′-((4-ethynylphenyl)sulfonyl)-3-(4-fluorophenyl)-4-phenyl-N-(2-sulfamoylethyl)-4,5-dihydro-1H-pyrazole-1-carboximidamide]
IC50 [1]: 0.1 to 0.5 µM
IC50 [2]: < 0.1 µM

Cn1ncc(S(=O)(=O)N=C(NCCS(N)(=O)=O)N2C[C@H](c3ccccc3)C(c3ccc(Cl)cc3)=N2)n1 [Compound 73, (S)-3-(4-chlorophenyl)-N′-((2-methyl-2H-1,2,3-triazol-4-yl)sulfonyl)-4-phenyl-N-(2-sulfamoylethyl)-4,5-dihydro-1H-pyrazole-1-carboximidamide]
IC50 [1]: 0.1 to 0.5 µM
IC50 [2]: 0.1 to 0.5 µM

CN1CCN(S(=O)(=O)CCN/C(=N\S(=O)(=O)c2ccc(Cl)cc2)N2C[C@H](c3ccccc3)C(c3ccc(F)cc3)=N2)CC1 [Compound 163, (S,E)-N′-((4-chlorophenyl)sulfonyl)-3-(4-fluorophenyl)-N-(2-((4-methylpiperazin-1-yl)sulfonyl)ethyl)-4-phenyl-4,5-dihydro-1H-pyrazole-1-carboximidamide]
IC50 [1]: < 0.1 µM
IC50 [2]: 0.1 to 0.5 µM

NS(=O)(=O)CCNC(=NS(=O)(=O)c1ccccc1Cl)N1C[C@H](c2ccccc2)C(c2ccc(Cl)cc2)=N1 [Compound 29, (S)-3-(4-chlorophenyl)-N′-((2-chlorophenyl)sulfonyl)-4-phenyl-N-(2-sulfamoylethyl)-4,5-dihydro-1H-pyrazole-1-carboximidamide]
IC50 [1]: < 0.1 µM
IC50 [2]: < 0.1 µM

CN1CCN(S(=O)(=O)CCN/C(=N\S(=O)(=O)c2ccc(F)cc2)N2C[C@H](c3ccccc3)C(c3ccc(F)cc3)=N2)CC1 [Compound 165, (S,E)-3-(4-fluorophenyl)-N′-((4-fluorophenyl)sulfonyl)-N-(2-((4-methylpiperazin-1-yl)sulfonyl)ethyl)-4-phenyl-4,5-dihydro-1H-pyrazole-1-carboximidamide]
IC50 [1]: < 0.1 µM
IC50 [2]: 0.1 to 0.5 µM

C[C@H](CN/C(=N\S(=O)(=O)c1ccc(F)cc1)N1C[C@H](c2ccccc2)C(c2ccc(Cl)cc2)=N1)S(N)(=O)=O [Compound 14, (S,E)-3-(4-chlorophenyl)-N′-((4-fluorophenyl)sulfonyl)-4-phenyl-N-((R)-2-sulfamoylpropyl)-4,5-dihydro-1H-pyrazole-1-carboximidamide]
IC50 [1]: < 0.1 µM
IC50 [2]: < 0.1 µM

C[C@@H](CN/C(=N\S(=O)(=O)c1ccc(F)cc1)N1C[C@H](c2ccccc2)C(c2ccc(F)cc2)=N1)S(N)(=O)=O [Compound 54, (S,E)-3-(4-fluorophenyl)-N′-((4-fluorophenyl)sulfonyl)-4-phenyl-N-((S)-2-sulfamoylpropyl)-4,5-dihydro-1H-pyrazole-1-carboximidamide]
IC50 [1]: < 0.1 µM
IC50 [2]: < 0.1 µM

NS(=O)(=O)C1CCN(/C(=N/S(=O)(=O)c2ccc(Cl)cc2)N2C[C@H](c3ccccc3)C(c3ccc(F)cc3)=N2)CC1 [Compound 111, (S,Z)-1-((((4-chlorophenyl)sulfonyl)imino)(3-(4-fluorophenyl)-4-phenyl-4,5-dihydro-1H-pyrazol-1-yl)methyl)piperidine-4-sulfonamide]
IC50 [1]: > 0.5 µM
IC50 [2]: > 0.5 µM

O=S(=O)(/N=C(\NCCS(=O)(=O)N1CCNCC1)N1C[C@H](c2ccccc2)C(c2ccc(Cl)cc2)=N1)c1ccc(Cl)cc1 [Compound 159, (S,E)-3-(4-chlorophenyl)-N′-((4-chlorophenyl)sulfonyl)-4-phenyl-N-(2-(piperazin-1-ylsulfonyl)ethyl)-4,5-dihydro-1H-pyrazole-1-carboximidamide]
IC50 [1]: < 0.1 µM
IC50 [2]: < 0.1 µM

CN(C)S(=O)(=O)CCNC(=NS(=O)(=O)c1ccc(Cl)cc1)N1C[C@H](c2ccccc2)C(c2ccc(F)cc2)=N1 [Compound 161, (S,E)-N′-((4-chlorophenyl)sulfonyl)-N-(2-(N,N-dimethylsulfamoyl)ethyl)-3-(4-fluorophenyl)-4-phenyl-4,5-dihydro-1H-pyrazole-1-carboximidamide]
IC50 [1]: 0.1 to 0.5 µM
IC50 [2]: 0.1 to 0.5 µM

NS(=O)(=O)CCNC(=NS(=O)(=O)c1cccnc1)N1C[C@H](c2ccccc2)C(c2ccc(F)cc2)=N1 [Compound 69, (S)-3-(4-fluorophenyl)-4-phenyl-N′-(pyridin-3-ylsulfonyl)-N-(2-sulfamoylethyl)-4,5-dihydro-1H-pyrazole-1-carboximidamide]
IC50 [1]: > 0.5 µM
IC50 [2]: > 0.5 µM

NS(=O)(=O)N1CC[C@@H](N/C(=N/S(=O)(=O)c2ccc(Cl)cc2)N2C[C@H](c3ccccc3)C(c3ccc(Cl)cc3)=N2)C1 [Compound 247, (S,Z)-3-(4-chlorophenyl)-N′-((4-chlorophenyl)sulfonyl)-4-phenyl-N-((R)-1-sulfamoylpyrrolidin-3-yl)-4,5-dihydro-1H-pyrazole-1-carboximidamide]
IC50 [1]: 0.1 to 0.5 µM
IC50 [2]: < 0.1 µM

NS(=O)(=O)[C@@H]1CC[C@H](N/C(=N/S(=O)(=O)c2ccc(Cl)cc2)N2C[C@H](c3ccccc3)C(c3ccc(Cl)cc3)=N2)C1 [Compound 143, (S,Z)-3-(4-chlorophenyl)-N′-((4-chlorophenyl)sulfonyl)-4-phenyl-N-((1S,3R)-3-sulfamoylcyclopentyl)-4,5-dihydro-1H-pyrazole-1-carboximidamide]
IC50 [1]: < 0.1 µM
IC50 [2]: < 0.1 µM

NS(=O)(=O)CCNC(=NS(=O)(=O)c1cccc(Cl)c1)N1C[C@H](c2ccccc2)C(c2ccc(Cl)cc2)=N1 [Compound 31, (S)-3-(4-chlorophenyl)-N′-((3-chlorophenyl)sulfonyl)-4-phenyl-N-(2-sulfamoylethyl)-4,5-dihydro-1H-pyrazole-1-carboximidamide]
IC50 [1]: < 0.1 µM
IC50 [2]: < 0.1 µM

NS(=O)(=O)[C@H]1CCN(/C(=N/S(=O)(=O)c2ccc(Cl)cc2)N2C[C@H](c3ccccc3)C(c3ccc(Cl)cc3)=N2)C1 (single isomer, unassigned) [Compound 135]
IC50 [1]: > 0.5 µM
IC50 [2]: > 0.5 µM

CC(C)(CN/C(=N\S(=O)(=O)c1ccc(Cl)cc1)N1C[C@H](c2ccccc2)C(c2ccc(Cl)cc2)=N1)CS(N)(=O)=O [Compound 87, (S,E)-3-(4-chlorophenyl)-N′-((4-chlorophenyl)sulfonyl)-N-(2,2-dimethyl-3-sulfamoylpropyl)-4-phenyl-4,5-dihydro-1H-pyrazole-1-carboximidamide]
IC50 [1]: 0.1 to 0.5 µM
IC50 [2]: 0.1 to 0.5 µM

NS(=O)(=O)CCN/C(=N\S(=O)(=O)c1ccc(C(F)(F)F)cc1)N1C[C@H](c2ccccc2)C(c2ccc(F)cc2)=N1 [Compound 43, (S,E)-3-(4-fluorophenyl)-4-phenyl-N-(2-sulfamoylethyl)-N′-((4-(trifluoromethyl)phenyl)sulfonyl)-4,5-dihydro-1H-pyrazole-1-carboximidamide]
IC50 [1]: < 0.1 µM
IC50 [2]: < 0.1 µM

CNS(=O)(=O)CCN/C(=N\S(=O)(=O)c1ccc(Cl)cc1)N1C[C@H](c2ccccc2)C(c2ccc(Cl)cc2)=N1 [Compound 169, (S,E)-3-(4-chlorophenyl)-N′-((4-chlorophenyl)sulfonyl)-N-(2-(N-methylsulfamoyl)ethyl)-4-phenyl-4,5-dihydro-1H-pyrazole-1-carboximidamide]
IC50 [1]: < 0.1 µM
IC50 [2]: < 0.1 µM

CN(CCS(N)(=O)=O)/C(=N/S(=O)(=O)c1ccc(Cl)cc1)N1C[C@H](c2ccccc2)C(c2ccc(Cl)cc2)=N1 [Compound 109, (S,Z)-3-(4-chlorophenyl)-N′-((4-chlorophenyl)sulfonyl)-N-methyl-4-phenyl-N-(2-sulfamoylethyl)-4,5-dihydro-1H-pyrazole-1-carboximidamide]
IC50 [1]: > 0.5 µM
IC50 [2]: > 0.5 µM

C#Cc1ccc(S(=O)(=O)N=C(NCCS(N)(=O)=O)N2C[C@H](c3ccccc3)C(c3ccc(Cl)cc3)=N2)cc1 [Compound 21, (S)-3-(4-chlorophenyl)-N′-((4-ethynylphenyl)sulfonyl)-4-phenyl-N-(2-sulfamoylethyl)-4,5-dihydro-1H-pyrazole-1-carboximidamide]
IC50 [1]: < 0.1 µM
IC50 [2]: < 0.1 µM
